Laboratory results from patent US6008372A, “Substituted dinaphthylmethyl and diheteroarylmethylacetyl histidine inhibitors of protein farnesyltransferase” (Warner-Lambert Company, priority 1998, dated 1999).
Counter-ions that a name gives are not always drawn. Like-named read-outs stand apart in the source and are kept apart here.

Biological target: T1, rat brain farnesyl protein transferase (Rattus norvegicus, UniProt Q02293+Q04631)
T1 construct: 40-fold purified rat brain farnesyl protein transferase; from tissue; host or cells: rat brain
Test: Protein:farnesyltransferase (PFT/FPT) inhibitory activity assay
Assay type: biochemical

[1] = Hepes (without 5 mM phosphate), read-out: Farnesyl Protein Transferase Inhibition, Hepes, IC50
[2] = Hepes/5 mM PO4^-3, pH 7.4, read-out: Farnesyl Protein Transferase Inhibition, Hepes/5 mM PO4^-3, IC50

Row | IC50 [1] | IC50 [2] | Structure (SMILES)
1 | 1800 nM | 1300 nM | O=C(N[C@@H](Cc1c[nH]cn1)C(=O)OCCO)C(Cc1cccc2ccccc12)Cc1cccc2ccccc12 [Example 42, (S)-3-(1H-Imidazol-4-yl)-2-(3-naphthalen-1-yl-2-naphthalen-1-ylmethyl-propionylamino)-propionic acid, 2-hydroxy-ethyl ester, trifluoroacetate salt]
2 | 5600 nM | 3800 nM | CN(C)C(=O)[C@H](Cc1c[nH]cn1)NC(=O)C(Cc1cccc2ccccc12)Cc1cccc2ccccc12 [Example 43, (S)-N-[1-Dimethylcarbamoyl-2-(1H-imidazol-4-yl)-ethyl]-3-naphthalen-1-yl-2-naphthalen-1-ylmethyl-propionamide]
3 | 230 nM | 210 nM | C#CCCOC(=O)[C@H](Cc1c[nH]cn1)NC(=O)C(Cc1cccc2ccccc12)Cc1cccc2ccccc12 [Example 44, (S)-3-(1H-Imidazol-4-yl)-2-(3-naphthalen-1-yl-2-naphthalen-1-ylmethyl-propionylamino)-propionic acid, but-3-ynyl ester, trifluoroacetate salt]
4 | 490 nM | 320 nM | N#CCCOC(=O)[C@H](Cc1c[nH]cn1)NC(=O)C(CC1CCCC2CCCCC21)CC1CCCC2CCCCC21 (stereo partly drawn) [Example 45, (S)-2-[3-(Decahydro-naphthalen-1-yl)-2-(decahydro-naphthalen-1-ylmethyl)-propionylamino]-3-(1H-imidazol-4-yl)-propionic acid, 2-cyano-ethyl ester]
5 | 4900 nM | 5600 nM | CCCNC(=O)[C@H](Cc1c[nH]cn1)NC(=O)C(Cc1cccc2ccccc12)Cc1cccc2ccccc12 [Example 46]
6 | 1100 nM | 1400 nM | O=C(N[C@@H](Cc1c[nH]cn1)C(=O)OCCn1ccnc1)C(Cc1cccc2ccccc12)Cc1cccc2ccccc12 [Example 47, (S)-3-[1H-Imidazol-4-yl)-2-(3-naphthalen-1-yl-2-naphthalen-1-ylmethyl-propionylamino)-propionic acid, 2-imidazol-1-yl-ethyl ester]
7 | 1200 nM | 1300 nM | C=CCCOC(=O)[C@H](Cc1c[nH]cn1)NC(=O)C(Cc1cccc2ccccc12)Cc1cccc2ccccc12 [Example 48, (S)-3-(1H-Imidazol-4-yl)-2-(3-naphthalen-1-yl-2-naphthalen-1-ylmethyl-propionylamino)-propionic acid, but-3-enyl ester]
8 | 290 nM | 370 nM | N#CCCOC(=O)[C@H](Cc1c[nH]cn1)NC(=O)C(Cc1cccc2c1CCCC2)Cc1cccc2c1CCCC2 [Example 49, (S)-3-(1H-Imidazol-4-yl)-2-[3-(5,6,7,8-tetrahydro-naphthalen-1-yl)-2-(5,6,7,8-tetrahydro-naphthalen-1-ylmethyl)-propionylamino]-propionic acid, 2-cyano-ethyl ester]
9 | 4800 nM | 6000 nM | O=C(N[C@@H](Cc1c[nH]cn1)C(=O)NCCc1ccccc1)C(Cc1cccc2ccccc12)Cc1cccc2ccccc12 [Example 50]
10 | 440 nM | 370 nM | N#CCCCOC(=O)[C@H](Cc1c[nH]cn1)NC(=O)C(Cc1cccc2ccccc12)Cc1cccc2ccccc12 [Example 54, (S)-3-(1H-Imidazol-4-yl)-2-(3-naphthalen-1-yl-2-naphthalen-1-ylmethyl-propionyiamino)-propionic acid, 3-cyano-propyl ester]
11 | 5300 nM | 4300 nM | CC(C)=CCOC(=O)[C@H](Cc1c[nH]cn1)NC(=O)C(Cc1cccc2ccccc12)Cc1cccc2ccccc12 [Example 55, (S)-3-(1H-Imidazol-4-yl)-2-(3-naphthalen-1-yl-2-naphthalen-1-ylmethyl-propionylamino)-propionic acid 3-methyl-but-2-enyl ester]
12 | 370 nM | 360 nM | COC(=O)[C@H](Cc1c[nH]cn1)NCC(Cc1cccc2ccccc12)Cc1cccc2ccccc12 [Example 56, (S)-3-(1H-Imidazol-4-yl)-2-(3-naphthalen-1-yl-2-naphthalen-1-ylmethyl-propylamino)-propionic acid methyl ester]
13 | 5500 nM | 4100 nM | COC(=O)COC(=O)[C@H](Cc1c[nH]cn1)NC(=O)C(Cc1cccc2ccccc12)Cc1cccc2ccccc12 [Example 57, (S)-3-(1H-Imidazol-4-yl)-2-(3-naphthalen-1-yl-2-naphthalen-1-ylmethyl-propionylamino)-propionic acid, methoxycarbonylmethyl ester]
14 | 400 nM | 510 nM | N#CCOC(=O)[C@H](Cc1c[nH]cn1)NC(=O)C(Cc1cccc2ccccc12)Cc1cccc2ccccc12 [Example 58, (S )-3-(1H-Imidazol-4-yl)-2-(3-naphthalen-1-yl-2-naphthalen-1-ylmethyl-propionylamino)-propionic acid, cyanomethyl ester]
15 | 1300 nM | 1000 nM | O=C(N[C@@H](Cc1c[nH]cn1)C(=O)OCCSSCCO)C(Cc1cccc2ccccc12)Cc1cccc2ccccc12 [Example 59, (S)-3-(1H-Imidazol-4-yl)-2-(3-naphthalen-1-yl-2-naphthalen-1-ylmethyl-propionylamino)-propionic acid, 2-(2-hydroxy-ethyldisulfanyl)-ethyl ester]
16 | 930 nM | 1000 nM | COCn1cncc1C[C@H](NC(=O)C(Cc1cccc2ccccc12)Cc1cccc2ccccc12)C(=O)OC [Example 60, (S)-3-(3-Methoxymethyl-3H-imidazol-4-yl)-2-(3-naphthalen-1-yl-2-naphthalen-1-ylmethyl-propionylamino)-propionic acid, methyl ester]
17 | 550 nM | 500 nM | OC[C@H](Cc1c[nH]cn1)NCC(Cc1cccc2ccccc12)Cc1cccc2ccccc12 [Example 62, (S)-3-(1H-Imidazol-4-yl)-2-(3-naphthalen-1-yl-2-naphthalen-1-ylmethyl-propylamino)-propan-1-ol]
18 | 200 nM | 240 nM | CNC(=O)[C@H](Cc1c[nH]cn1)NCC(Cc1cccc2ccccc12)Cc1cccc2ccccc12 [Example 63, (S)-3-(1H-Imidazol-4-yl)-N-methyl-2-(3-naphthalen-1-yl-2-naphthalen-1-ylmethyl-propylamino)-propionamide]
19 | 610 nM | 460 nM | CNC(=O)[C@H](Cc1cncn1C)NC(=O)C(Cc1cccc2ccccc12)Cc1cccc2ccccc12 [Example 64, (S)-N-[1-Methylcarbamoyl-2-(3-methyl-3H-imidazol-4-yl)-ethyl]-3-naphthalen-1-yl-2-naphthalen-1-ylmethyl-propionamide]
